# Assay results from patent publication US8263406B2, “Enriched or purified population of motor neurons and its preparation from a population of embryonic stem cells” (Cornell Research Foundation, Inc., priority 2003, dated 2012).
# Test system: hES cells
# Experiment: Induction of motor neurons from hES cell-derived embryoid bodies, quantified by immunocytochemistry
# Format: cell-based, human
# Conditions: H1 hES-derived EBs, RA 10 uM
# Excerpt: A modified version of the protocol described in Wichterle et al., “Directed Differentiation of Embryonic Stem Cells into Motor Neurons,” Cell 110:385-397 (2002), which is hereby incorporated by reference in its entirety, was used for induction and differentiation of motor neurons from hES cells (FIG. 1A). For caudalization and specification to motor neurons, 90% confluent hES cell cultures were dissociated to form embryoid bodies (EB) in suspension dishes (Ultra low cluster 6 well plates, […], Mass.). Fresh RA was added every day and fresh medium along with SHH replaced every 72 hrs. After 6-8 days, differentiation of motor neurons was induced by plating the spheres formed onto poly-ornithin/fibronectin coated plates in DMEM/F12 supplemented with N2 (Gibco), GDNF (20 ng/ml), BDNF (20 ng/ml), or neurotrophin 4 (NT4) (20 ng/ml), CNTF (20 ng/ml), B27 (1X) and 2% FBS. After 7-14 days, cultures were either fixed for immunocytochemistry or used for physiology.
# Cells were stained at different stages of culture for the following: Tra 1-81 (Mouse IgG, 1:200), SSEA-4 (supernatant, mouse IgG, 1:50, DSHB), βIII-tubulin (mouse IgG; 1:400, Covance), Islet1 (supernatant, mouse IgG, 1:50, Developmental Studies Hybridoma Bank from the University of Iowa (DSHB)), Hb9 (supernatant, mouse IgG, 1:50, DSH), ChAT (Rabbit IgG, 1:200, Chemicon), desmin (Rabbit IgG, 1:200, Sigma), and GFP (mouse IgG, 1:100). […]
# To determine if hES cells had the capacity to respond to the caudalizing effects of RA and the ventralizing effects of SHH to generate MNs (Wichterle et al., “Directed Differentiation of Embryonic Stem Cells into Motor Neurons,” Cell 110:385-397 (2002), which is hereby incorporated by reference in its entirety), hES cells were raised to 90% confluency before inducing them to form EBs in suspension cultures. […] After a week in a differentiated condition, the cells were fixed and the percentage of βIII-tubulin expressing neurons was determined. […]
compound,measurement,setting,value
"CC1=C(/C=C/C(C)=C/C=C/C(C)=C/C(=O)O)C(C)(C)CCC1 [RA+/SHH−, all-trans retinoic acid]",percentage of neurons (βIII-tubulin expressing) generated from the differentiated EBs,"8-9 days in suspension, one week differentiation with FBS/B27/BDNF/GDNF/CNTF, of total population",around 30%
same,percentage of βIII-tubulin expressing neurons that expressed islet-1/ChAT,"SHH 200 nM where present, FIG. 2E",3%-10%
same,percentage of βIII-tubulin expressing neurons that expressed Hb9,"SHH 200 nM where present, FIG. 2F",3%-6%
